In patent US4347252A, “Rodenticidal 1-(3,5-bistrifluoromethylphenyl)-3-(4-t-butylpiperidino)prop-1-yne” (priority 1980, dated 1982):

System: Wild Rats (Rattus norvegicus)
Test: Laboratory Simulated Field Test on Wild Rats in confinement
Assay type: in vivo
Conditions: for Total bait eaten: poisoned + plain
Source text: Laboratory Simulated Field Test on Wild Rats (Rattus norvegicus) in confinement
One male and nine female rats were given the choice of two feeding points, at each of which the animals were offered a bait consisting of medium oatmeal (95%) and wholemeal flour (5%) (plain bait). After a period of six days during which the plain bait was offered at both feeding points, the plain bait was replaced at one of the feeding points by a bait of the same composition in which 0.1% by weight of the test compound used in Test 2 hereinbefore described had been incorporated (poisoned bait), while the plain bait continued to be offered at the other feeding point.

Compound: CC(C)(C)C1CCN(CC#Cc2cc(C(F)(F)F)cc(C(F)(F)F)c2)CC1.Cl [1-(3,5-bistrifluoromethylphenyl)-3-(4-tert-butylpiperidino)prop-1-yne hydrochloride]
- Quantity of bait eaten, Feeding Point A, Poisoned bait (Day 1, 0.1% by weight in bait): 99.7 g
- Quantity of bait eaten, Feeding Point B, Plain bait (Day 1 of offering poisoned bait at Point A): 80.1 g
- Quantity of bait eaten, Feeding Point A, Poisoned bait (Day 2): 95.2 g
- Quantity of bait eaten, Feeding Point B, Plain bait (Day 2 of offering poisoned bait at Point A): 65.9 g
- Quantity of bait eaten, Feeding Point A, Poisoned bait (Day 3): 19.8 g
- Quantity of bait eaten, Feeding Point B, Plain bait (Day 3 of offering poisoned bait at Point A): 67.4 g
- Cumulative mortality (Day 4): 30%
- Quantity of bait eaten, Feeding Point A, Poisoned bait (Day 4): 5.1 g
- Quantity of bait eaten, Feeding Point B, Plain bait (Day 4 of offering poisoned bait at Point A): 38.1 g
- Quantity of bait eaten, Feeding Point A, Poisoned bait (Day 5): 1.8 g
- Quantity of bait eaten, Feeding Point B, Plain bait (Day 5 of offering poisoned bait at Point A): 27.7 g
- Cumulative mortality (Day 6): 60%
- Quantity of bait eaten, Feeding Point B, Plain bait (Day 6 of offering poisoned bait at Point A): 19.3 g
- Cumulative mortality (Day 7): 70%
- Quantity of bait eaten, Feeding Point B, Plain bait (Day 7 of offering poisoned bait at Point A): 4.0 g
- Cumulative mortality (Day 8): 80%
- Quantity of bait eaten, Feeding Point B, Plain bait (Day 8 of offering poisoned bait at Point A): 6.5 g
- Cumulative mortality (Day 9): 90%
- Quantity of bait eaten, Feeding Point A, Poisoned bait (Day 9): 1.3 g
- Quantity of bait eaten, Feeding Point B, Plain bait (Day 9 of offering poisoned bait at Point A): 3.7 g
- Quantity of bait eaten, Feeding Point A, Poisoned bait (Day 11): 0.7 g
- Quantity of bait eaten, Feeding Point B, Plain bait (Day 11 of offering poisoned bait at Point A): 0.7 g
- Cumulative mortality (Day 12): 100%
- Total bait eaten (Day 1): 179.8 g
- Total bait eaten (Day 2): 161.1 g
- Total bait eaten (Day 3): 97.2 g
- Total bait eaten (Day 4): 43.2 g
- Total bait eaten (Day 5): 29.5 g
- Total bait eaten (Day 6): 19.3 g
- Total bait eaten (Day 7): 4.0 g
- Total bait eaten (Day 8): 6.5 g
- Total bait eaten (Day 9): 5.0 g
- Total bait eaten (Day 11): 1.4 g
